According to patent US4492693A, “Benzothienylglycyl cephalosporin derivatives” (priority 1983, dated 1985):
Read-outs that look alike come from different tables or passages of the source.

Columns and labels:
Type in all cases: cell-based
[1] = tested on: Bacteroides fragilis; assay: Susceptibility of Anaerobic Bacteroides Isolates by the Agar-Dilution Method (Table III); conditions: 24 h
Excerpt: (§1) A typical and preferred compound provided by this invention is 7-(3-benzothienyl)glycylamido-3-methyl-3-cephem-4-carboxylic acid, the compound illustrated in Example 9. The antibacterial activity of this compound has been determined in standard in vitro agar dilution assays against a variety of gram positive and gram negative microorganism. The following Tables present typical minimum inhibitory concentrations (MIC's) in μg/ml for several compounds of the invention when evaluated against the indicated microorganisms. MIC's for several known compounds are also presented for comparison.
(§2) Susceptibility of Anaerobic Bacteroides Isolates by the
(§3) Agar-Dilution Method MIC (μg/ml) readings 24 hrs. after incubation

[2] = tested on: Bacteroides thetaiotaomicron; assay: as above; conditions: 24 h
Excerpt: as §1, §2, §3

[3] = tested on: Bacteroides corrodens; assay: as above; conditions: Eikenella corrodens; strain 1874; readings 24 hrs. after incubation
Excerpt: as §1, §2, §3

[4] = tested on: H. influ.; assay: Agar Dilution MIC (Table I); conditions: read-out: Agar Dilution MIC
[5] = tested on: Staph. aureus; assay: Agar Dilution MIC (Table I); conditions: Staphylococcus aureus, read-out: Agar Dilution MIC
[6] = tested on: Klebsiella; assay: Agar Dilution MIC (Table I); conditions: Klebsiella, read-out: Agar Dilution MIC
[7] = tested on: Strep. PN; assay: Agar Dilution MIC (Table I); conditions: strain PARK
[8] = tested on: Strep. D; assay: Agar Dilution MIC (Table I); conditions: read-out: Agar Dilution MIC
Excerpt: as §1
Agar Dilution MIC (μg/ml)

[9] = tested on: H. influenzae; assay: Expanded Spectrum MIC (Table II); conditions: Haemophilus influenzae
Excerpt: as §1
(§4) Expanded Spectrum MIC (μg/ml)

[10] = tested on: Staph. aureus; assay: Expanded Spectrum MIC (Table II); conditions: Staphylococcus aureus
Excerpt: as §1, §4

[11] = tested on: Staph. epi; assay: Expanded Spectrum MIC (Table II)
Excerpt: as §1, §4

[12] = tested on: E. coli; assay: Agar Dilution MIC (Table I); conditions: Escherichia coli
[13] = tested on: Staph. epi; assay: Agar Dilution MIC (Table I); conditions: read-out: Agar Dilution MIC
[14] = tested on: Strep. A; assay: Agar Dilution MIC (Table I); conditions: strain C203; read-out: Agar Dilution MIC

Measured: MIC

CC1=C(C(=O)O)N2C(=O)C(NC(=O)[C@H](N)c3csc4cc(F)ccc34)C2SC1 (stereo partly drawn) [Ex. 17, D-7-(6-Fluoro-3-benzothienyl)glycylamido-3-methyl-3-cephem-4-carboxylic acid]
4 µg/mL: [1]; strain 9, readings 24 hrs. after incubation | [1]; strain 106, readings 24 hrs. after incubation | [1]; strain 108, readings 24 hrs. after incubation | [1]; strain 110, readings 24 hrs. after incubation | [11]; strain EPI1 | [13]; strain EPI1
128 µg/mL: [6]; strain KAE | [6]; strain X68 | [8]; strain X66 | [12]; strain N10
16 µg/mL: [1]; strain 103, readings 24 hrs. after incubation | [3]
32 µg/mL: [1]; strain 111, readings 24 hrs. after incubation | [2]; strain 1900A, readings 24 hrs. after incubation
8 µg/mL: [1]; strain 107, readings 24 hrs. after incubation | [1]; strain 1877, readings 24 hrs. after incubation | [2]; strain 1438, readings 24 hrs. after incubation | [5]; strain V41
0.25 µg/mL: [9]; strain 1683 | [11]; strain 286
1 µg/mL: [5]; strain X1.1 | [9]; strain 76 | [9]; strain 169 | [9]; strain 171 | [9]; strain HESS | [10]; strain S224 | [10]; strain S225 | [10]; strain S226 | [10]; strain S227 | [10]; strain S229 | [10]; strain S230 | [10]; strain S234 | [10]; strain S237 | [10]; strain S238 | [10]; strain S239 | [11]; strain 285
0.125 µg/mL: [14]
2 µg/mL: [1]; strain 104, readings 24 hrs. after incubation | [4]; strain C.L. | [6]; strain X26 | [9]; strain C.L. | [11]; strain 269 | [11]; strain 270 | [13]; strain 222
64 µg/mL: [5]; strain X400 | [8]; strain 2041 | [9]; strain M366 | [9]; strain R465 | [9]; strain STEL | [12]; strain EC14 | [12]; strain TEM
0.5 µg/mL: [4]; strain 76 | [7] | [9]; strain 105 | [9]; strain 158 | [9]; strain 164 | [9]; strain 312 | [9]; strain 1930 | [9]; strain 4842 | [9]; strain M370 | [9]; strain M371 | [10]; strain S228 | [10]; strain S231 | [11]; strain 219
